Assay results as given in PubChem BioAssay (NCI).
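Grown in 96-well plates, cells were treated for 48 hours with each compound at five concentrations. Insufficient inhibition: endpoint recorded as highest concentration tested. GI50: concentration for 50% inhibition of growth. TGI marks complete inhibition of growth.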

Tests used:
Test in all cases: inhibition of tumour cell growth, NCI panel, 48 h
SNB-19 CNS = test system: SNB-19 CNS
NCI-H522 lung = test system: NCI-H522 lung
LOX IMVI melanoma = test system: LOX IMVI melanoma
SF-539 CNS = test system: SF-539 CNS
BT-549 breast = test system: BT-549 breast
UACC-62 melanoma = test system: UACC-62 melanoma
NCI/ADR-RES ovarian = test system: NCI/ADR-RES ovarian
ACHN renal = test system: ACHN renal
OVCAR-5 ovarian = test system: OVCAR-5 ovarian
HOP-92 NSCLC = test system: HOP-92 NSCLC
MDA-MB-435 = test system: MDA-MB-435
EKVX NSCLC = test system: EKVX NSCLC
SK-MEL-5 melanoma = test system: SK-MEL-5 melanoma
MALME-3M melanoma = test system: MALME-3M melanoma
TK-10 renal = test system: TK-10 renal
SN12C renal = test system: SN12C renal
SF-268 CNS = test system: SF-268 CNS
MCF7 breast = test system: MCF7 breast
MDA-MB-468 breast = test system: MDA-MB-468 breast
UACC-257 melanoma = test system: UACC-257 melanoma
786-0 renal = test system: 786-0 renal
HOP-62 NSCLC = test system: HOP-62 NSCLC
COLO 205 colon = test system: COLO 205 colon
HCT-15 colon = test system: HCT-15 colon
HL-60(TB) leukemia = test system: HL-60(TB) leukemia
OVCAR-4 ovarian = test system: OVCAR-4 ovarian
A498 renal = test system: A498 renal
OVCAR-3 ovarian = test system: OVCAR-3 ovarian
RXF 393 renal = test system: RXF 393 renal
A549 NSCLC = test system: A549 NSCLC
UO-31 renal = test system: UO-31 renal
SK-OV-3 ovarian = test system: SK-OV-3 ovarian
NCI-H23 lung = test system: NCI-H23 lung
DU-145 prostate = test system: DU-145 prostate
PC-3 prostate = test system: PC-3 prostate
SF-295 CNS = test system: SF-295 CNS
OVCAR-8 ovarian = test system: OVCAR-8 ovarian
SK-MEL-2 melanoma = test system: SK-MEL-2 melanoma
IGROV1 ovarian = test system: IGROV1 ovarian
KM12 colon = test system: KM12 colon
SK-MEL-28 melanoma = test system: SK-MEL-28 melanoma
HCC-2998 colon = test system: HCC-2998 colon
MDA-MB-231 breast = test system: MDA-MB-231 breast
CAKI-1 renal = test system: CAKI-1 renal

For Clc1ccc2c(N/N=C/c3c[nH]c4ccc(Br)cc34)ccnc2c1, the GI50 (SNB-19 CNS) was 1540 nM, the TGI (SNB-19 CNS) was 2890 nM and the GI50 (NCI-H522 lung) was 1790 nM. It also gave a TGI (NCI-H522 lung) of 3370 nM, a GI50 (LOX IMVI melanoma) of 173 nM and a TGI (LOX IMVI melanoma) of 330 nM. For the same compound, the GI50 (SF-539 CNS) was 1660 nM, the TGI (SF-539 CNS) was 3050 nM and the GI50 (BT-549 breast) was 1480 nM. It also gave a TGI (BT-549 breast) of 2840 nM, a GI50 (UACC-62 melanoma) of 1660 nM and a TGI (UACC-62 melanoma) of 3050 nM. The GI50 (NCI/ADR-RES ovarian) was 1410 nM, the TGI (NCI/ADR-RES ovarian) was 2840 nM and the GI50 (ACHN renal) was 1660 nM. The TGI (ACHN renal) was 3040 nM, the GI50 (OVCAR-5 ovarian) was 1530 nM and the TGI (OVCAR-5 ovarian) was 2880 nM. It also gave a GI50 (HOP-92 NSCLC) of 1330 nM, a TGI (HOP-92 NSCLC) of 2740 nM and a GI50 (MDA-MB-435) of 1690 nM. The TGI (MDA-MB-435) was 3100 nM, the GI50 (EKVX NSCLC) was 1160 nM and the TGI (EKVX NSCLC) was 2400 nM. It also gave a GI50 (SK-MEL-5 melanoma) of 1500 nM, a TGI (SK-MEL-5 melanoma) of 2830 nM and a GI50 (MALME-3M melanoma) of 1600 nM. It also gave a TGI (MALME-3M melanoma) of 3010 nM, a GI50 (TK-10 renal) of 2270 nM and a TGI (TK-10 renal) of 3780 nM. The GI50 (SN12C renal) was 1750 nM, the TGI (SN12C renal) was 3170 nM and the GI50 (SF-268 CNS) was 1700 nM. It also gave a TGI (SF-268 CNS) of 3530 nM, a GI50 (MCF7 breast) of 952 nM and a TGI (MCF7 breast) of 2350 nM. For the same compound, the GI50 (MDA-MB-468 breast) was 1240 nM, the TGI (MDA-MB-468 breast) was 2570 nM and the GI50 (UACC-257 melanoma) was 1580 nM. For the same compound, the TGI (UACC-257 melanoma) was 2970 nM, the GI50 (786-0 renal) was 1440 nM and the TGI (786-0 renal) was 2880 nM. For the same compound, the GI50 (HOP-62 NSCLC) was 1580 nM, the TGI (HOP-62 NSCLC) was 3100 nM and the GI50 (COLO 205 colon) was 358 nM. The TGI (COLO 205 colon) was 1290 nM, the GI50 (HCT-15 colon) was 182 nM and the TGI (HCT-15 colon) was 343 nM. The GI50 (HL-60(TB) leukemia) was 469 nM, the TGI (HL-60(TB) leukemia) was 1920 nM and the GI50 (OVCAR-4 ovarian) was 1770 nM. It also gave a TGI (OVCAR-4 ovarian) of 3380 nM, a GI50 (A498 renal) of 1870 nM and a TGI (A498 renal) of 3380 nM. It also gave a GI50 (OVCAR-3 ovarian) of 1660 nM, a TGI (OVCAR-3 ovarian) of 3060 nM and a GI50 (RXF 393 renal) of 1420 nM. The TGI (RXF 393 renal) was 2790 nM, the GI50 (A549 NSCLC) was 1580 nM and the TGI (A549 NSCLC) was 3060 nM. For the same compound, the GI50 (UO-31 renal) was 1440 nM, the TGI (UO-31 renal) was 2770 nM and the GI50 (SK-OV-3 ovarian) was 1570 nM. It also gave a TGI (SK-OV-3 ovarian) of 3030 nM, a GI50 (NCI-H23 lung) of 1110 nM and a TGI (NCI-H23 lung) of 2370 nM. The GI50 (DU-145 prostate) was 924 nM, the TGI (DU-145 prostate) was 2140 nM and the GI50 (PC-3 prostate) was 1310 nM. The TGI (PC-3 prostate) was 2760 nM, the GI50 (SF-295 CNS) was 1610 nM and the TGI (SF-295 CNS) was 2990 nM. It also gave a GI50 (OVCAR-8 ovarian) of 1800 nM, a TGI (OVCAR-8 ovarian) of 3350 nM and a GI50 (SK-MEL-2 melanoma) of 1790 nM. The TGI (SK-MEL-2 melanoma) was 3250 nM, the GI50 (IGROV1 ovarian) was 1650 nM and the TGI (IGROV1 ovarian) was 3080 nM. For the same compound, the GI50 (KM12 colon) was 1800 nM, the TGI (KM12 colon) was 3340 nM and the GI50 (SK-MEL-28 melanoma) was 1590 nM. For the same compound, the TGI (SK-MEL-28 melanoma) was 2950 nM, the GI50 (HCC-2998 colon) was 762 nM and the TGI (HCC-2998 colon) was 2060 nM. For the same compound, the GI50 (MDA-MB-231 breast) was 1240 nM, the TGI (MDA-MB-231 breast) was 2560 nM and the GI50 (CAKI-1 renal) was 1460 nM. For the same compound, the TGI (CAKI-1 renal) was 2800 nM.
